Measurements as given in PubChem BioAssay (NCI).
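Results reflect a 48-hour exposure of cells in 96-well plates to compound at five concentrations. GI50 = concentration required for 50% inhibition of growth. TGI marks complete inhibition of growth.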

Columns and labels:
Test in all cases: DTP human tumour cell line panel, 48 h
U251 CNS = test system: U251 CNS
HL-60(TB) leukemia = test system: HL-60(TB) leukemia
CCRF-CEM leukemia = test system: CCRF-CEM leukemia
UACC-257 melanoma = test system: UACC-257 melanoma
HOP-62 NSCLC = test system: HOP-62 NSCLC
HCC-2998 colon = test system: HCC-2998 colon
SNB-19 CNS = test system: SNB-19 CNS
TK-10 renal = test system: TK-10 renal
RXF 393 renal = test system: RXF 393 renal
SK-MEL-5 melanoma = test system: SK-MEL-5 melanoma
A498 renal = test system: A498 renal
K-562 leukemia = test system: K-562 leukemia
HOP-92 NSCLC = test system: HOP-92 NSCLC
786-0 renal = test system: 786-0 renal
MDA-MB-435 = test system: MDA-MB-435
MCF7 breast = test system: MCF7 breast
DU-145 prostate = test system: DU-145 prostate
NCI/ADR-RES ovarian = test system: NCI/ADR-RES ovarian
SK-MEL-28 melanoma = test system: SK-MEL-28 melanoma
UO-31 renal = test system: UO-31 renal
T-47D breast = test system: T-47D breast
M14 melanoma = test system: M14 melanoma
MOLT-4 leukemia = test system: MOLT-4 leukemia
IGROV1 ovarian = test system: IGROV1 ovarian
MDA-MB-231 breast = test system: MDA-MB-231 breast
SK-MEL-2 melanoma = test system: SK-MEL-2 melanoma
MALME-3M melanoma = test system: MALME-3M melanoma
ACHN renal = test system: ACHN renal
LOX IMVI melanoma = test system: LOX IMVI melanoma
BT-549 breast = test system: BT-549 breast
HT29 colon = test system: HT29 colon
SN12C renal = test system: SN12C renal
NCI-H522 lung = test system: NCI-H522 lung
NCI-H23 lung = test system: NCI-H23 lung
SW-620 colon = test system: SW-620 colon
SF-539 CNS = test system: SF-539 CNS
HS 578T breast = test system: HS 578T breast
OVCAR-3 ovarian = test system: OVCAR-3 ovarian
CAKI-1 renal = test system: CAKI-1 renal
UACC-62 melanoma = test system: UACC-62 melanoma
HCT-116 colon = test system: HCT-116 colon
SK-OV-3 ovarian = test system: SK-OV-3 ovarian
COLO 205 colon = test system: COLO 205 colon
OVCAR-8 ovarian = test system: OVCAR-8 ovarian
NCI-H460 lung = test system: NCI-H460 lung
OVCAR-5 ovarian = test system: OVCAR-5 ovarian
SF-268 CNS = test system: SF-268 CNS
KM12 colon = test system: KM12 colon
OVCAR-4 ovarian = test system: OVCAR-4 ovarian
SR leukemia = test system: SR leukemia
HCT-15 colon = test system: HCT-15 colon
PC-3 prostate = test system: PC-3 prostate
SNB-75 CNS = test system: SNB-75 CNS
NCI-H226 lung = test system: NCI-H226 lung
A549 NSCLC = test system: A549 NSCLC

Fc1ccc2nc(-c3nc(-c4ccccc4)n4ccccc34)[nH]c2c1
GI50 (U251 CNS): 2.22 µM | TGI (U251 CNS): 5.42 µM | GI50 (HL-60(TB) leukemia): 14.9 µM | TGI (HL-60(TB) leukemia): > 100 µM | GI50 (CCRF-CEM leukemia): 5.28 µM | TGI (CCRF-CEM leukemia): > 100 µM | GI50 (UACC-257 melanoma): 2.16 µM | TGI (UACC-257 melanoma): 4.76 µM | GI50 (HOP-62 NSCLC): 1.94 µM | TGI (HOP-62 NSCLC): 3.84 µM | GI50 (HCC-2998 colon): 4.11 µM | TGI (HCC-2998 colon): 16.9 µM | GI50 (SNB-19 CNS): 2.37 µM | TGI (SNB-19 CNS): 6.22 µM | GI50 (TK-10 renal): 3.25 µM | TGI (TK-10 renal): 6.72 µM | GI50 (RXF 393 renal): 2.99 µM | TGI (RXF 393 renal): 10.2 µM | GI50 (SK-MEL-5 melanoma): 1.55 µM | TGI (SK-MEL-5 melanoma): 3.49 µM | GI50 (A498 renal): 2.08 µM | TGI (A498 renal): 6.46 µM | GI50 (K-562 leukemia): 3.47 µM | TGI (K-562 leukemia): > 100 µM | GI50 (HOP-92 NSCLC): 1.73 µM | TGI (HOP-92 NSCLC): 6.42 µM | GI50 (786-0 renal): 2.23 µM | TGI (786-0 renal): 4.23 µM | GI50 (MDA-MB-435): 2.59 µM | TGI (MDA-MB-435): 8.94 µM | GI50 (MCF7 breast): 1.37 µM | TGI (MCF7 breast): 5.59 µM | GI50 (DU-145 prostate): 5.56 µM | TGI (DU-145 prostate): 18.1 µM | GI50 (NCI/ADR-RES ovarian): 2.23 µM | TGI (NCI/ADR-RES ovarian): 6.01 µM | GI50 (SK-MEL-28 melanoma): 2.13 µM | TGI (SK-MEL-28 melanoma): 5.51 µM | GI50 (UO-31 renal): 1.75 µM | TGI (UO-31 renal): 5.15 µM | GI50 (T-47D breast): 1.06 µM | TGI (T-47D breast): 4.76 µM | GI50 (M14 melanoma): 3.83 µM | TGI (M14 melanoma): 14.1 µM | GI50 (MOLT-4 leukemia): 3.6 µM | TGI (MOLT-4 leukemia): > 100 µM | GI50 (IGROV1 ovarian): 1.95 µM | TGI (IGROV1 ovarian): 5.3 µM | GI50 (MDA-MB-231 breast): 2.45 µM | TGI (MDA-MB-231 breast): 10.7 µM | GI50 (SK-MEL-2 melanoma): 2.85 µM | TGI (SK-MEL-2 melanoma): 7.83 µM | GI50 (MALME-3M melanoma): 2.06 µM | TGI (MALME-3M melanoma): 4.33 µM | GI50 (ACHN renal): 2.25 µM | TGI (ACHN renal): 5.94 µM | GI50 (LOX IMVI melanoma): 4.86 µM | TGI (LOX IMVI melanoma): 20.2 µM | GI50 (BT-549 breast): 2.76 µM | TGI (BT-549 breast): 7.61 µM | GI50 (HT29 colon): 3.25 µM | TGI (HT29 colon): 9.15 µM | GI50 (SN12C renal): 4.5 µM | TGI (SN12C renal): 17.9 µM | GI50 (NCI-H522 lung): 2.43 µM | TGI (NCI-H522 lung): 5.6 µM | GI50 (NCI-H23 lung): 3.54 µM | TGI (NCI-H23 lung): 17 µM | GI50 (SW-620 colon): 3.97 µM | TGI (SW-620 colon): 17.3 µM | GI50 (SF-539 CNS): 2.32 µM | TGI (SF-539 CNS): 6.85 µM | GI50 (HS 578T breast): 3.56 µM | TGI (HS 578T breast): 25 µM | GI50 (OVCAR-3 ovarian): 4.29 µM | TGI (OVCAR-3 ovarian): 15.1 µM | GI50 (CAKI-1 renal): 3.38 µM | TGI (CAKI-1 renal): 15.1 µM | GI50 (UACC-62 melanoma): 1.96 µM | TGI (UACC-62 melanoma): 4.96 µM | GI50 (HCT-116 colon): 2 µM | TGI (HCT-116 colon): 3.82 µM | GI50 (SK-OV-3 ovarian): 2.4 µM | TGI (SK-OV-3 ovarian): 5.26 µM | GI50 (COLO 205 colon): 3.42 µM | TGI (COLO 205 colon): 13.1 µM | GI50 (OVCAR-8 ovarian): 1.87 µM | TGI (OVCAR-8 ovarian): 4.1 µM | GI50 (NCI-H460 lung): 2.07 µM | TGI (NCI-H460 lung): 5.2 µM | GI50 (OVCAR-5 ovarian): 3.07 µM | TGI (OVCAR-5 ovarian): 9.04 µM | GI50 (SF-268 CNS): 3.29 µM | TGI (SF-268 CNS): 9.96 µM | GI50 (KM12 colon): 3.31 µM | TGI (KM12 colon): 10.2 µM | GI50 (OVCAR-4 ovarian): 1.93 µM | TGI (OVCAR-4 ovarian): 6.31 µM | GI50 (SR leukemia): 4.45 µM | TGI (SR leukemia): > 100 µM | GI50 (HCT-15 colon): 4.29 µM | TGI (HCT-15 colon): 27.7 µM | GI50 (PC-3 prostate): 1.82 µM | TGI (PC-3 prostate): 4.24 µM | GI50 (SNB-75 CNS): 2.09 µM | TGI (SNB-75 CNS): 6.87 µM | GI50 (NCI-H226 lung): 1.8 µM | TGI (NCI-H226 lung): 5.8 µM | GI50 (A549 NSCLC): 2.68 µM | TGI (A549 NSCLC): 7.98 µM
